Here are results for 2 compounds from patent publication US20200306337A1, “Bioactive Metabolities Encoded by the Human Microbiome Using Primary Sequence Alone” (The Rockefeller University, priority 2017, published 2020).

Non-standard residues stand in square brackets, D forms with d. Residues, ends and D or L forms follow the SMILES beside them. *: point of attachment. Tetradecanoyl(3S-OH) = CCCCCCCCCCC[C@H](O)CC(=O)*

In one test the test system is MRSA clinical isolates. In kind it is cell-based, S. aureus. Here is the method:
a) Standard assays. Minimal inhibitory concentration (MIC) assays were performed in duplicate in 96-well microtiter plates based on the protocol recommended by Clinical and Laboratory Standards Institute (CLSI, 2012). DMSO stock solutions of syn-BNPs (12.8 mg/mL) were added to the first well in a row and serially diluted (2 fold per transfer) across the microtiter plate. The last well was reserved for a peptide-free control. Overnight cultures of bacteria were diluted 5,000-fold and 50 μL was used as an inoculum in each well. MIC values were determined by visual inspection after 18 h incubation (37° C., static growth).

A further test relates to MRSA USA300. The experiment in a line: Two-dimensional carbenicillin-humimycin A synergy susceptibility assay. It counts as cell-based, Staphylococcus aureus. Here is the method: b) Synergy assays. Synergistic β-lactam-humimycin activities were assessed through a two-dimensional (2D) susceptibility assay. Two fold serial dilutions were carried out as described above. Carbenicillin (a β-lactam antibiotic) was diluted serially from left to right, and humimycin was diluted serially from top to bottom. The highest concentration tested for both antibiotics was 32 μg/mL. Fractional inhibitory concentration (FIC) is defined as the ratio of the apparent synergistic MIC divided by the MIC of the antibiotic measured alone.

In turn, `CCCCCCCCCCC[C@H](O)CC(=O)N[C@@H](Cc1ccc(O)cc1)C(=O)N[C@@H](CO)C(=O)N[C@H](Cc1ccc(O)cc1)C(=O)N[C@@H](Cc1ccccc1)C(=O)N[C@@H](C(=O)N[C@H](C(=O)N[C@H](C(=O)O)C(C)C)C(C)C)[C@H](C)O` [Humimycin A] ({Tetradecanoyl(3S-OH)}-YS[dY]F[dT]VV-OH; C-terminus assumed) showed an MICs against MRSA clinical isolates of 8 to 128 µg/mL. The “synergy with carbenicillin in inhibiting growth” value in the test on MRSA USA300 (FIC values ≤0.5 defines synergy, n=3) was “act synergistically”.
On to `CC1(C)S[C@@H]2[C@H](NC(=O)C(C(=O)O)c3ccccc3)C(=O)N2[C@H]1C(=O)O` (stereo partly shown) [carbenicillin], for which the MIC in the test with MRSA USA300 (Staphylococcus aureus, carbenicillin alone) was found to be 32 µg/mL. For the same compound, the “MIC of carbenicillin in the presence of humimycin A” value with MRSA USA300 (in the presence of 2 μg/mL humimycin A (0.25×MIC)) worked out at 1 µg/mL.

Usually MIC stands for the lowest concentration found to suppress growth.
